Data from PMC10518255, “A first-in-class pan-lysyl oxidase inhibitor impairs stromal remodeling and enhances gemcitabine response and survival in pancreatic cancer” (Nature Cancer, 2023).
“And” between values parts separate entries of the source, which are not always exact repeats. Identical values can stand only once.

How the values were obtained:
KPC mouse model of PDAC [1] = assay: KPC in vivo survival study; settings: KPC mice; PXS-5505 20 mg kg−1 i.p. daily, gemcitabine 100 mg kg−1 i.p. twice weekly
Description: (§1) The maximal tumor burden allowed by ethics was not exceeded.
as §1

KPC mouse model of PDAC [2] = assay: Overt metastatic lesions observed during necropsy, KPC survival study; assay type: in vivo; settings: for Ascites / overt metastatic lesions, Diaphragm / overt metastatic lesions, Liver / overt metastatic lesions, Lungs / overt metastatic lesions, Small intestine: KPC mice
Procedure: Fig. 4 PXS-5505 administered in a KPC in vivo survival study. a, Schematic of the KPC in vivo survival study. Presence of a primary tumor in KPC mice was confirmed by two independent researchers (positive diagnosis) before commencement of daily treatment (Tx) on one of four treatment arms as follows: vehicle, 0.9% saline; Gem, twice-weekly gemcitabine (100 mg kg^−1 i.p.); PXS-5505, daily PXS-5505 at 20 mg kg^−1 i.p.; and PXS-5505 + Gem, daily PXS-5505 at 20 mg kg^−1 i.p. + twice-weekly gemcitabine (100 mg kg^−1 i.p.). b, Table of median survival (since diagnosis/commencement of treatment) across the four treatment groups (n = 30 biologically independent animals (vehicle), n = 31 biologically independent animals (Gem), n = 36 biologically independent animals (PXS-5505), n = 46 biologically independent animals (PXS-5505 + Gem)). c, Kaplan–Meier curves for overall survival across treatment arms (n = 30 biologically independent animals (vehicle), n = 31 biologically independent animals (Gem), n = 36 biologically independent animals (PXS-5505), n = 46 biologically independent animals (PXS-5505 + Gem)). P values determined by log-rank (Mantel–Cox) test. d, Representative maximum intensity projections of SHG multiphoton imaging for tumors from each treatment group (n = 1 FOV taken from one biologically independent animal per group) at end point (scale bars, 100 μm) and quantification of SHG peak signal intensity (n = 5 biologically independent animals per group and five FOV per animal). Data are mean ± s.d. […] Quantification of metastases (n = 18 biologically independent animals (vehicle), n = 18 biologically independent animals (Gem), n = 17 biologically independent animals (PXS-5505), n = 15 biologically independent animals (PXS-5505 + Gem)). Data are mean ± s.d.
We quantified presence of overt metastatic dissemination to organs across the different treatment groups (Fig. 4f).
For the KPC autochthonous model, gemcitabine HCl (Jomar Life Research) or vehicle control (0.9% saline) was administered by i.p. injection twice weekly (100 mg kg^−1 in saline) on day 2 and 4 of the treatment cycle until the end point was reached. GLP-grade PXS-5505 (20 mg kg^−1 in saline) or vehicle (0.9% saline) was administered daily by i.p. injection. Treatment of mice was initiated upon detection of a palpable tumor, verified by two independent researchers and monitoring of mice continued daily until the experimental end point. End points were defined as development of ascites, overnight weight loss >10% of body weight, hunching posture and/or signs of distress and/or suffering, total weight loss ≥20% from maximum body weight or tumor interfering with mobility and access to food and water. The maximal tumor burden allowed by ethics was not exceeded. At the end point, primary tumors and secondary metastatic organs (including liver, small intestine, diaphragm and lungs) were collected and samples were taken for formalin fixation overnight, unconfined compression analysis and snap-frozen for tissue banking. Fixed tissues were processed according to standard histology protocols and paraffin-embedded.

KPC PDAC tumors = assay: Tumor weight at end point, KPC survival study; assay type: in vivo, mouse; settings: Extended Data 5B; KPC tumours; individual animals
Description: Treatment of KPC mice with gemcitabine led to a slowing of primary tumor progression, increasing survival from a median survival of 85 days in untreated mice to 125 days in gemcitabine-treated mice (P = 0.0005) (Fig. 4b,c, blue versus red). PXS-5505 as a monotherapy led to no changes in median survival compared to vehicle (85 versus 81 days) (Fig. 4c, blue versus green).
Extended Data Fig. 5 PXS-5505 in combination with gemcitabine in vivo. a. […] Signal is defined as the enzyme activity in the aorta, while noise is measured in the presence of a high concentration (300 µM) BAPN to abolish any lysyl oxidase family activity. […] Data presented as mean values +/− SD b. […] Data presented as mean values +/− SD. c. FITC-dextran (molecular weight: 10 kDa) signal quantification from KPC tumor end point from each treatment group (vehicle n = 3 biologically independent animals, PXS-5505 n = 5 biologically independent animals, Gem n = 5 biologically independent animals, PXS-5505 + Gem n = 5 biologically independent animals). 4 ROIs taken per mouse. P-values determined by Welchs t-test. […] Quantification of red birefringent (mature) collagen fibers from human PDXs at end point after 3 cycles of treatment, treated as indicated. […] P values determined by Welchs t-test. g. […] Quantification of green birefringent (nascent) collagen fibers from human PDXs at end point, treated as indicated. […]

Structure (SMILES)	Median survival since diagnosis (KPC mouse model of PDAC [1])	Ascites (number of mice) (KPC mouse model of PDAC [2])	overt metastatic lesions, Diaphragm (number of mice) (KPC mouse model of PDAC [2])	overt metastatic lesions, Liver (number of mice) (KPC mouse model of PDAC [2])	overt metastatic lesions, Lungs (number of mice) (KPC mouse model of PDAC [2])	overt metastatic lesions, Small intestine (number of mice) (KPC mouse model of PDAC [2])	Ascites (KPC mouse model of PDAC [2])	overt metastatic lesions, Diaphragm (KPC mouse model of PDAC [2])	overt metastatic lesions, Liver (KPC mouse model of PDAC [2])	overt metastatic lesions, Lungs (KPC mouse model of PDAC [2])	overt metastatic lesions, Small intestine (KPC mouse model of PDAC [2])	Tumour weight at endpoint (KPC PDAC tumors)
Cl.Cl.NC/C=C(\F)CS(=O)(=O)c1cccc2cccnc12.O [PXS-5505, (Z)-3-fluoro-4-(quinolin-8-ylsulfonyl)but-2-en-1-amine dihydrochloride monohydrate]	81 days	3/23	2/23	3/23	2/23	8/23	13%	9%	13%	9%	35%	0.55 grams and 0.54 grams and 0.19 grams and 0.83 grams and 0.33 grams and 1.18 grams and 0.43 grams and 0.96 grams and 1.94 grams and 0.78 grams and 1.16 grams and 1.34 grams and 0.68 grams and 0.3 grams and 1.3 grams and 0.5 grams and 0.8 grams
Nc1ccn([C@@H]2O[C@H](CO)[C@@H](O)C2(F)F)c(=O)n1 [Gem, gemcitabine]	125 days	1/20	3/20	3/20	5/20	9/20	5%	15%	15%	25%	45%	0.28 grams and 0.51 grams and 0.6 grams and 0.69 grams and 0.41 grams and 0.462 grams and 0.3 grams and 0.26 grams and 0.37 grams and 1.42 grams and 0.75 grams and 0.63 grams and 1.2 grams and 0.7 grams and 0.4 grams
